According to patent US5652239A, “Pyridazinedione derivatives useful in treatment of neurological disorders” (Imperial Chemical Company, priority 1991, dated 1997):

How the values were obtained:
[1] = test system: NMDA receptor-mediated synaptic transmission in hippocampal slices; settings: reference antagonists, 0 Mg++, general statement; cited from earlier work
[2] = test system: glutamate-evoked contractions of the guinea pig ileum; experiment: Test B: glutamate-evoked contractions of the guinea pig ileum; format: cell-based; settings: Cavia porcellus; twitch responses evoked with 100 micromolar glutamate
Excerpt: (§1) The actions of compounds of formula I as antagonists at the glycine receptor of the NMDA receptor complex can be shown by one or more standard tests such as the [^3 H]-glycine binding assay (Test A), by functional assays in vitro such as tests for measuring glutamate-evoked contractions of the guinea pig ileum (Test B) and/or tests for measuring antagonism of NMDA-induced evoked response in hippocampal slices (Test C), and by tests in vivo such as ischemia induced by carotid occlusion in the gerbil model (Test D).
For glutamate-evoked contractions of the guinea pig ileum, the methodology is as described previously (Luzzi et. al., Br. J. Pharmacol., 95, 1271-1277 (1989)). The longitudinal muscle and associated myenteric plexus are removed and placed in oxygenated modified Krebs-Henseleit solution (118 millimolar NaCl, 4.7 millimolar KCl, 2.5 millimolar CaCl2, 1.2 millimolar KH2 PO4, 25 millimolar NaHCO3, and 11 millimolar glucose). Tissues are suspended on glass rods in organ baths under a resting tension of 0.5 g. After an initial depolarization with 80 millimolar potassium ion to remove possible blockade of the NMDA receptor channel complex with magnesium ion, twitch responses are evoked with 100 micromolar glutamate. Isometric mechanical responses are recorded. Tissues are equilibrated for at least 2 hours prior to addition of compounds.
A dose response curve for the effect of the unknown on the magnitude of the glutamate-evoked contractions is generated. Glutamate-evoked contractions are generated at 20 minute intervals, with the test compound added 5 minutes before the glutamate. The magnitude of the contraction with each dose of the unknown is expressed relative to the control, the third contraction evoked by 100 micromolar glutamate alone in the same tissue bath. The IC50 is obtained from a least-squares regression of a logit-log transformation of the data.
After the last contraction for the dose-response curve, 100 micromolar glycine is added to the bath 10 minutes after the previous addition of glutamate. […]

[3] = test system: neuronal damage in the hippocampus; experiment: Test D: ischemia induced by carotid occlusion in the gerbil model; format: in vivo, adult female Mongolian gerbils; settings: 10 mg/Kg intraperitoneally, 45 minutes before and 5 minutes after occlusion
Excerpt: as §1
When testing in vivo using the gerbil ischemic model, adult female Mongolian gerbils (50-70 g) are anesthetized with 2 to 3% halothane. The bilateral common carotid arteries at the neck are exposed and occluded with microaneurysm clips. After 10 min (unless specified), the clips are removed and the blood flow through the carotid arteries is restored and the skin is sutured. […] Gross behavioral observations along with motor activity are recorded for 2 hr on the first (24 hr) day following the occlusion. […]
Sections (7 micron) are evaluated from each brain. […] The average brain damage rating score for each group is recorded, and the damage scores of the drug treated group are compared to the vehicle-treated group using Wilcoxon-Rank Sum test. […]

[4] = test system: NMDA receptor-mediated synaptic transmission in hippocampal slices; experiment: Test C: hippocampal slice test (HST), antagonism of NMDA-induced evoked response; format: cell-based, male Sprague-Dawley rats; settings: 0 Mg++; for inhibition of the secondary PSs (antagonism) / reversal of the inhibition by D-serine: Example 1 at 15.2 μM, Example 4 at 10 μM; for concentration at which glycine antagonism is exhibited: evaluated at a multiple of the Test B IC50
Excerpt: as §1
The characterization of a compound as a glycine antagonist in the hippocampal slice test (HST) is dependent on (1) the ability of the compound to inhibit NMDA receptor-mediated synaptic transmission in hippocampal slices and (2) the subsequent reversal of these inhibitory effects by D-serine.
The procedure for the HST is as follows. Transverse hippocampal slices are obtained from male Sprague-Dawley rats weighting 80-150 gm. The rats are decapitated and the brains quickly removed and placed in cold Krebs-Ringersolution which contains (in millimolar) NaCl (122.6), NaHCO3 (26.2), KCl (5.4), MgSO4 (2.0), NaH2 PO4 (1.2), CaCl2 (2.0), and D-glucose (10.0). The hippocampus is dissected free from surrounding tissues, and 495 microns thick slices are cut and immediately transferred to a humidified static interface chamber with a 95% O2 :5% CO2 atmosphere at room temperature. Following a 1-hour equilibration period, slices are placed one at a time into a small perfusion chamber where they are completely submerged in continuously flowing oxygenated 2 millimolar Mg++ perfusate (4 mL/min) at 33° C. and allowed to equilibrate for 10 to 15 min.
For the electrophysiology part of the experiments, bipolar tungsten stimulating electrodes are positioned in the stratum radiatum of the CA3 cell body region of the hippocampus and a single-barrel glass microelectrode filled with Krebs-Ringer solution is positioned in the CA1 cell body region. Low frequency stimulation is then applied to area CA3 which evokes a primary population spike (PS) recorded from CA1. The primary PS represents the summation of a multiple of synaptic potentials mediated via the quisqualate receptor. The stimulus intensity is adjusted to evoke a PS of 1-4 mV amplitude and is maintained at this intensity throughout the experiment.
When the perfusion medium is then changed from 1 millimolar Mg++ to one containing 0 Mg++, the primary PS is followed by the appearance of many secondary PSs. The appearance of the secondary PSs are attributed to the unmasking of NMDA-mediated synaptic events in 0 Mg++. […] The effects of directly acting NMDA and indirectly acting NMDA (ie, glycine) receptor antagonists can also be differentiated by the ability of D-serine to reverse this inhibition.

[5] = target: T1, glycine receptor of the NMDA receptor complex (Rattus norvegicus, UniProt P35439); experiment: Test A: [^3 H]-glycine binding assay; parameters: species or system male Sprague-Dawley rats; settings: 20 nanomolar [^3 H]-glycine, rat cortical/hippocampal synaptic membranes, pH 7.1, 30 minutes at 4° C.
T1 construct: neuronal synaptic membranes are prepared from adult (about 250 g) male Sprague-Dawley rats; from tissue; host or cells: cerebral cortices and hippocampi of adult male Sprague-Dawley rats, synaptic membranes
Excerpt: as §1
In the [^3 H]-glycine binding assay, neuronal synaptic membranes are prepared from adult (about 250 g) male Sprague-Dawley rats. Freshly dissected cortices and hippocampi are homogenized in 0.32M sucrose (110 mg/mL). Synaptosomes are isolated by centrifugation (1000 xg, 10 min), the supernatant is pelleted (20,000 xg, 20 min) and resuspended in double-distilled water. The suspension was centrifuged for 20 minutes at 8,000 xg. The resulting […] and buffy coat are washed twice (48,000 xg, 10 mins, resuspension in double-deionized water). The final pellet is quickly frozen (dry ice/ethanol bath) under double-deionized water and stored at -70° C.
On the day of the experiment, thawed synaptic membranes are homogenized with a Brinkmann Polytron (™, Brinkmann Instruments, Westbury, N.Y.) tissue homogenizer in 50 millimolar tris(hydroxymethyl)aminomethane citrate, pH 7.1. The membranes are incubated with 0.04% Sufact-AMPS X100 (™, Pierce, Rockford, Ill.) in buffer for 20 minutes at 37° C. and washed six times by centrifugation (48,000 xg, 10 min) and resuspended in buffer. The final pellet is homogenized at 200 mg wet weight/mL of the buffer for the binding assay.
For [^3 H]-glycine binding at the N-methyl-D-aspartate receptor, 20 nanomolar [^3 H]-glycine (40-60 Ci/mmol, New England Nuclear, Boston, Mass.) is incubated with the membranes suspended in 50 millimolar tris (hydroxymethyl)aminomethane citrate, pH 7.1 for 30 minutes at 4° C. Glycine, 1 millimolar, is used to define the nonspecific binding. […] Radioactivity is estimated by liquid scintillation counting. […]

## O=C(O)c1cc(O)c2ccc(Cl)cc2n1 [7-chlorokynurenic acid]
[1]
  inhibition of the secondary PSs: inhibit the secondary PSs
  reversal of the inhibition of the secondary PSs by D-serine: reversed by D-serine

## NC(CCCP(=O)(O)O)C(=O)O (stereo not shown) [APV]
[1]
  reversal of the inhibition of the secondary PSs by D-serine: not reversed by D-serine

## O=C(O)C1CN(CCCP(=O)(O)O)CCN1 (stereo not shown) [CPP]
[1]
  reversal of the inhibition of the secondary PSs by D-serine: not reversed by D-serine

## O=c1[nH][nH]c(=O)c2c1[nH]c1cc(Cl)ccc12 [Example 1]
[2]
  IC50: 13 µM
[3]
  neuroprotection (relative to sham-operated control): 34%
[4]
  inhibition of the secondary PSs (antagonism): antagonist
  reversal of the inhibition by D-serine: reversible by D-serine
  concentration at which glycine antagonism is exhibited: 15.2 µM
[5]
  IC50: 550 nM

## O=c1[nH][nH]c(=O)c2c1[nH]c1cc(Cl)cc(Cl)c12 [Example 4]
[2]
  IC50: 6.4 µM
[3]
  neuroprotection (relative to sham-operated control): over 75%
[4]
  inhibition of the secondary PSs (antagonism): antagonist
  reversal of the inhibition by D-serine: reversible by D-serine
  concentration at which glycine antagonism is exhibited: 10 µM
[5]
  IC50: 330 nM

## O=c1[nH][nH]c(=O)c2c1[nH]c1cc(C(F)(F)F)cc(C(F)(F)F)c12 [Example 7, 7,9-Ditrifluoromethylpyridazino[4,5-b]indole-1,4-dione]
[2]
  IC50: 69 µM
[5]
  IC50: 2700 nM

## NC1CCN(O)C1=O (stereo not shown) [HA-966]
[1]
  inhibition of the secondary PSs: inhibit the secondary PSs
  reversal of the inhibition of the secondary PSs by D-serine: reversed by D-serine

## C[C@]12N[C@H](Cc3ccccc31)c1ccccc12 [MK-801]
[1]
  reversal of the inhibition of the secondary PSs by D-serine: not reversed by D-serine

## c1ccc(C2(N3CCCCC3)CCCCC2)cc1 [PCP]
[1]
  reversal of the inhibition of the secondary PSs by D-serine: not reversed by D-serine
